# Key:
# [1] = test system: murine primary lung endothelial cells; assay: Morphological detection of apoptotic cells, endothelial cells; type: cell-based, mouse; details: SDG 50 μM pre-treatment; irradiated; 24 h; IR alone 15.1%
# Procedure: (§1) Fibroblasts and endothelial cells were isolated from C57/bl6 mouse. For fibroblast isolation, mouse lungs were harvested, minced, and incubated with dispase (2 mg/ml) for 45 minutes. Pieces were plated out and fibroblasts were cultured as described previously and used between passages 3 and 10. Pulmonary microvascular endothelial cells (PMVEC) were isolated from murine lungs as described previously. Briefly, freshly harvested mouse lungs were treated with collagenase followed by isolation of cells by adherence to magnetic beads coated with mAb to platelet endothelial cell adhesion molecule (PECAM). […]
# (§2) Apoptotic cells are morphologically characterized by condensation of nucleus and cytoplasm, membrane blebbing, cell shrinkage, and breakdown of nuclear DNA, first in large segments and subsequently in nucleosomal fragments and finally formation of well-enclosed apoptotic bodies. Percentage of cells undergoing apoptosis was determined microscopically from the slides used for micronuclei detection (cytogenetic damage). At least, 500 cells were counted for each experiment (experiment done twice) and percent apoptotic cells were determined as follows: % Cell Death=Na/Nt×100, where Na is the number of cells with apoptotic bodies and Nt is the total number of cells analyzed. Gene Expression Analysis by Quantitative Real Time PCR (qPCR)
# [2] = test system: murine primary lung fibroblasts; assay: Morphological detection of apoptotic cells, fibroblasts; type: cell-based, mouse; details: SDG pre-treatment; irradiated
# Procedure: as §1, §2
# [3] = test system: mouse lung epithelial cells; assay: Apoptosis detection by western blotting (Bax, Bcl-2, cleaved caspase-3, cleaved PARP); type: cell-based; details: SDG pre-treated vs irradiated cells
# Procedure: Apoptosis was determined in mouse lung epithelial cells by levels of Bax (an apoptosis promoter), Bcl-2 (an apoptosis inhibitor), cleaved caspase-3, and cleaved poly (adenosine diphosphate-ribose) polymerase (PARP) seen using immunoblotting. Briefly, cells were lysed in PBS containing protease inhibitors. Immunoblot analysis of cell lysates was then performed using 10 well SDS 12% NuPAGE gel (Invitrogen, Carlsbad Calif.). Electrophoresis was performed at 200V for 1 hour. Transfer to PolyScreen PV transfer membrane (PerkinElmer Life Sciences, Boston, Mass.) was performed for 1 hour at 25 volts. Membrane was blocked overnight in 5% non-fat dry milk in phosphate buffered saline. The non-fat dry milk was then discarded and the membrane was incubated with primary antibody. Protein levels of Bax, Bcl-2, cleaved caspase-3, and cleaved PARP were detected using manufacturer recommended dilutions (Cell Signaling Technology, Danvers, Mass.) using rabbit anti-mouse monoclonal antibody against BAX and Bcl-2, and rabbit anti-mouse cleaved caspase-3 (Asp175), monoclonal antibody and a rabbit polyclonal anti-cleaved PARP (214/215) cleavage site specific antibody. The membrane was washed five times and then incubated in secondary antibody conjugated to horseradish peroxidase for 45 minutes at room temperature. Membranes were developed using Western Lighting Chemiluminescence Reagent Plus (PerkinElmer Life Sciences, Boston, Mass.) and quantified by densitometry scanning of specific bands (20 kDa for Bax, 26 kDa for Bcl-2, 17/19 kDa for cleaved caspase-3, and 89 kDa for cleaved PARP) that were adjusted for loading using β-actin expression level detected by specific secondary antibody (Sigma, St. Louis, Mo.).
# [4] = test system: mouse epithelial cells; assay: BaP-induced ROS generation (redox-sensitive fluorescence dye); type: cell-based; details: 10 or 20 μM BaP; 0.1-5 μM SDG; 2 hours
# Procedure: Exposure of murine epithelial cells to the tobacco and environmental carcinogen benzo-alpha-pyrene (BaP) induces damaging reactive oxygen species (ROS) as detected by a redox-sensitive fluorescence dye (FIG. 23). As early as 2 hours, post exposure to the carcinogen, a robust increase of fluorescence intensity indicates ROS generation in cells.
# [5] = SDG pharmacokinetic study after oral gavage (plasma and lung); type: in vivo, mouse
# Procedure: (§3) After selecting the 100 mg/kg dose as a dose that induces significant AOE expression while allowing for SDG to be detected in circulation, a pharmacokinetic study was performed to determine bioavailability and biological effects in target tissues (i.e., lung). Blood samples as well as tissues (lung, brain, liver, kidneys, spleen) were collected at 15 min, 30 min, and 1, 2, 4, 6, 8, 12 hours. SDG levels were determined as above in plasma and lung (FIGS. 41A-C). A single dose of 100 mg SDG/Kg was well absorbed and intact SDG was detectable in the circulation up to 6 hours post administration (FIG. 41A) and in flushed, blood-free lung tissues for 4 hours (FIG. 41B). […] The observed gene expression increase correlated with an increase in protein levels determined by western blotting (not shown). […] The use of SDG in human therapy is thus greatly facilitated and the toxicity risk is unlikely. Therefore a dose of 50-100 mg/Kg (1 or 2 mg SDG per day) is sufficient to induce the anticipated protective effects in target tissues and can be used for further study.
# [6] = test system: AOE gene expression (HO-1, NQO1, GST); assay: AOE gene expression in lung in the pharmacokinetic study; type: in vivo, mouse; details: 100 mg SDG/Kg oral; p<0.05
# Procedure: as §3
# [7] = Tolerability of SDG given twice daily for 7 days; type: in vivo; details: 100 mg/Kg given twice daily for 7 days
# [8] = test system: human mesothelial cells; assay: Asbestos-induced ROS (DCF fluorescence) in human mesothelial cells; type: cell-based; details: asbestos 10 μg crocidolite/cm^2 or H2O2 100 μM; SDG 50 μM
# Procedure: SDG blunts asbestos-induced ROS secretion by human mesothelial cells in vitro (FIG. 50). Experimental plan for detecting asbestos-induced ROS in cells: (human mesothelial) HM cells or mouse macrophages plated in 20% DMEM for 24 hours; Added 20 μM DCF in HBSS for 1 hour; Supernatant replaced with 1% DMEM containing H2O2 (100 μM), asbestos (10 μg crocidolite/cm^2) and/or SDG (50 μM); and Fluorescence level monitored up to 36 hours post-initiation of asbestos exposure.
# [9] = 100 mg SDG/Kg oral, 30 minutes post-administration
compound,measurement,setting,value
"COc1cc(C[C@@H](CO[C@@H]2O[C@H](CO)[C@@H](O)[C@H](O)[C@H]2O)[C@H](CO[C@@H]2O[C@H](CO)[C@@H](O)[C@H](O)[C@H]2O)Cc2ccc(O)c(OC)c2)ccc1O [SDG, secoisolariciresinol diglucoside]",Apoptotic cells,[1],10.71%±1.45
same,Extent of apoptosis,[2],significantly reduced
same,Bax protein levels,[3],trended towards decreased levels
same,Bcl-2 protein levels,[3],trended towards decreased levels
same,Cleaved PARP levels,"[3]; 6, 24, 48 hours post-IR",trended towards decreased levels
same,Cleaved caspase-3 levels,"[3]; 6, 24, 48 hours post-IR",trended towards decreased levels
same,ROS,[4],negligible levels
same,"Time SDG detectable in flushed, blood-free lung tissues",[5]; 100 mg SDG/Kg oral,4 h
same,Time intact SDG detectable in the circulation post administration,[5]; 100 mg SDG/Kg oral,up to 6 hours
same,Lung tissue concentration of SDG,[5]; [9],12.6 µM
same,Plasma concentration of SDG,[5]; [9],800 nM
same,Absorption,"[5]; single dose of 100 mg SDG/Kg, oral gavage",well absorbed
same,"AOE gene expression levels (HO-1, NQO1, GST) over baseline",[6],significantly elevated
same,Intolerance / toxicity,[7],neither intolerance nor toxicity
same,ROS levels,[8],significantly lowers ROS levels to baseline levels

# — patent US10966995B2, “Use of secoisolariciresinol diglucosides (SDGS) and related compounds for protection against radiation and chemical damage” (THE TRUSTEES OF THE UNIVERSITY OF PENNSYLVANIA, priority 2014, dated 2021)
